The source of these data is patent US10821115B2, “Compounds that inhibit Mcl-1 protein” (priority 2017, dated 2020).

Assay [1] addresses recombinant human Mcl-1 (residues 171-327) / Bim interaction (Homo sapiens (Human), UniProt Q07820). The experiment in a line: biochemical. It is filed as binding. Conditions: read-out: Mcl-1 HTRF IC50. For orientation: TR-FRET usually uses a lanthanide donor and a delayed reading to cut background.
Assay [2] deals with human multiple myeloma cell line, OPM-2. The experiment in a line: Cell viability assay (OPM-2 10 FBS), CellTiter-Glo. Type of assay: cell-based. A digest of the protocol:
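Cells were seeded at 3000 cells/well in RPMI 1640 with 10% FBS and exposed to serially diluted compounds for 16 h at 37 °C, 5% CO2.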

[3] abbreviates: 0.1 nM Mcl-1(171-327), 0.05 nM biotin-Bim (51-76).
[4] abbreviates: Homo sapiens, OPM-2, 16 h, read-out: OPM-2 10% FBS IC50 IP, OPM-2 cells, 10% FBS, 16 h incubation.
[5] abbreviates: read-out: OPM-2 10% FBS IC50 IP, OPM-2 cells, 10% FBS, 16 h incubation.
[6] abbreviates: TR-FRET, Mcl-1(171-327) / biotin-Bim (51-76).
[7] abbreviates: read-out: OPM-2 10% FBS IC50 IP, OPM-2 cells, 10% FBS, 16 h, CellTiter-Glo.
Setting [8] is: Homo sapiens, OPM-2, 16 h, read-out: OPM-2 10% FBS IC50 IP, OPM-2 cells, 10% FBS, 16 h, CellTiter-Glo.

Like-named read-outs stand apart in the source and are kept apart here.

recombinant human Mcl-1 (residues 171-327) / Bim interaction, sequence (Q07820 171-327): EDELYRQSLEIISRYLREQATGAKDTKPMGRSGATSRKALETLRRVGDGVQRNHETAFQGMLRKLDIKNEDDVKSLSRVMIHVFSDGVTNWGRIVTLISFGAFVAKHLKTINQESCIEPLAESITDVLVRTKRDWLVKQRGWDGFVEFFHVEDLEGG

The IC50 is the concentration at which inhibition is half-maximal. As for `CC(C)CO[C@@]1(CN2CCN3CCCC[C@@H]3C2)/C=C/C[C@H](C)[C@@H](C)S(=O)(=O)NC(=O)c2ccc3c(c2)N(C[C@@H]2CC[C@H]21)C[C@@]1(CCCc2cc(Cl)ccc21)CO3` [Example 350, (15,3′R,6′R,7′S,8′E,11′S,12′R)-6-chloro-11′,12′-dimethyl-7′-(2-methylpropoxy)-7′-((9aR)-octahydro-2H-pyrido[1,2-a]pyrazin-2-ylmethyl)-3,4-dihydro-2H,15′H-spiro[naphthalene-1,22′-[20]oxa[13]thia[1,14]diazatetracyclo [14.7.2.0~3,6~.0~19,24~]pentacosa[8,16,18,24]tetraen]-15′-one 13′,13′-dioxide], the IC50 is 12.3 nM in assay [1] (setting [3]) and above 33300 nM in assay [2] (setting [4]).
Consider `COC[C@@H]1[C@@H](C)C/C=C/[C@@](CN2CCN3CCOC[C@@H]3C2)(OC)[C@@H]2CC[C@H]2CN2C[C@@]3(CCCc4cc(Cl)ccc43)COc3ccc(cc32)C(=O)NS1(=O)=O` [Example 184, (1S,3′R,6′R,7′R,8′E,11′S,12′S)-6-chloro-7′-((9aS)-hexahydropyrazino[2,1-c][1,4]oxazin-8(1H)-ylmethyl)-7′-methoxy-12′-(methoxymethyl)-11′-methyl-3,4-dihydro-2H,15′H-spiro[naphthalene-1,22′-[20]oxa[13]thia[1,14]diazatetracyclo [14.7.2.0~3,6~.0~19,24~]pentacosa[8,16,18,24]tetraen]-15′-one 13′,13′-dioxide], for which the IC50 in assay [1] (setting [3]) was 0.068 nM; in assay [2] (setting [4]), 17 nM.
Consider `C[C@@H]1[C@@H](C)CCCC2(CN3CCOC[C@H]3CO2)[C@@H]2CC[C@H]2CN2C[C@@]3(CCCc4cc(Cl)ccc43)COc3ccc(cc32)C(=O)NS1(=O)=O` (stereo partly drawn) [Example 400, (1S,3′R,6′R,7′S,9a″S,11′S,12′R)-6-chloro-11′,12′-dimethyl-3,4,6″,7″,9″,9a″-hexahydro-1″H,2H,15′H-dispiro[naphthalene-1,22′-[20]oxa[13]thia[1,14]diazatetracyclo[14.7.2.0-3,6˜.0˜19,24˜]pentacosa[16,18,24]triene-7′,3″-[1,4]oxazino[3,4-c][1,4]oxazin]-15′-one 13′,13′-dioxide], for which the results for the concentration for half-maximal inhibition (IC50) in assay [1] (setting [3]) and in assay [2] (setting [5]) were 1.1 nM and 2870 nM, respectively.
For the molecule `CO[C@@]1(CO)CCC[C@H](C)[C@@H](C)S(=O)(=O)NC(=O)c2ccc3c(c2)N(C[C@@H]2CC[C@H]21)C[C@@]1(CCCc2cc(Cl)ccc21)CO3` (stereo in doubt) [Example 100133, (1S,3′R,6′R,7′S,11′S,12′R)-6-chloro-7′-(hydroxymethyl)-7′-methoxy-11′,12′-dimethyl-3,4-dihydro-2H,15′H-spiro[naphthalene-1,22′-[20]oxa[13]thia[1,14]diazatetracyclo [14.7.2.0~3,6~.0~19,24~]pentacosa[16,18,24]rien]-15′-one 13′,13′-dioxide], the IC50 in assay [1] (setting [6]) was found to be 0.885 nM; in assay [2] (setting [7]), 984 nM.
On the same counts, the results for `C[C@@H]1[C@@H](C)CCC[C@](O)(CC(=S)N(C)C)[C@@H]2CC[C@H]2CN2C[C@@]3(CCCc4cc(Cl)ccc43)COc3ccc(cc32)C(=O)NS1(=O)=O` (single isomer, unassigned) [Example 100172] are 1.29 nM and 1570 nM.
As for `COC(=O)C[C@@]1(O)/C=C/C[C@H](C)[C@@H](C)S(=O)(=O)NC(=O)c2ccc3c(c2)N(C[C@@H]2CC[C@H]21)C[C@@]1(CCCc2cc(Cl)ccc21)CO3` [Example 100287, methyl ((1S,3′R,6′R,7′R,8′E,11′S,12′R)-6-chloro-7′-hydroxy-11′,12′-dimethyl-13′,13′-dioxido-15′-oxo-3,4-dihydro-2H-spiro[naphthalene-1,22′-[20]oxa[13]thia[1,14]diazatetracyclo [14.7.2.0~3,6~.0~19,24~]pentacosa[8,16,18,24]tetraen]-7′-yl)acetate], the IC50 in assay [1] (setting [6]) amounted to 0.494 nM; in assay [2] (setting [8]), 1870 nM.
With `CO[C@@]1(C#CCO)/C=C/C[C@H](C)[C@@H](C)S(=O)(=O)NC(=O)c2ccc3c(c2)N(C[C@@H]2CC[C@H]21)C[C@@]1(CCCc2cc(Cl)ccc21)CO3` [Example 100345, (1S,3′R,6′R,7′S,8′E,11′S,12′R)-6-chloro-7′-(3-hydroxy-1-propyn-1-yl)-7′-methoxy-11′,12′-dimethyl-3,4-dihydro-2H,15′H-spiro[naphthalene-1,22′-[20]oxa[13]thia[1,14]diazatetracyclo [14.7.2.0~3,6~.0~19,24~]pentacosa[8,16,18,24]tetraen]-15′-one 13′,13′-dioxide], the IC50 was found to be 2.42 nM in assay [1] (setting [6]) and 218 nM in assay [2] (setting [7]).
As to `CO[C@@]1(CN2CCN(Cc3noc(C)n3)CC2)/C=C/C[C@H](C)[C@@H](C)S(=O)(=O)NC(=O)c2ccc3c(c2)N(C[C@@H]2CC[C@H]21)C[C@@]1(CCCc2cc(Cl)ccc21)CO3` [Example 316, (1S,3′R,6′R,7′S,8′E,11′S,12′R)-6-chloro-7′-methoxy-11′,12′-dimethyl-7′-((4-((5-methyl-1,2,4-oxadiazol-3-yl)methyl)-1-piperazinyl)methyl)-3,4-dihydro-2H,15′H-spiro[naphthalene-1,22′-[20]oxa[13]thia[1,14]diazatetracyclo [14.7.2.0~3,6~.0~19,24~]pentacosa[8,16,18,24]tetraen]-15′-one 13′,13′-dioxide], the results for the IC50 in assay [1] (setting [3]) and in assay [2] (setting [4]) were 0.166 nM and 47 nM, respectively.
As for `COc1ncccc1[C@]1(OC)/C=C/C[C@H](C)[C@@H](C)S(=O)(=O)NC(=O)c2ccc3c(c2)N(C[C@@H]2CC[C@H]21)C[C@@]1(CCCc2cc(Cl)ccc21)CO3` [Example 100352, (1S,3′R,6′R,7′S,8′E,11′S,12′R)-6-chloro-7′-methoxy-7′-(2-methoxy-3-pyridinyl)-11′,12′-dimethyl-3,4-dihydro-2H,15′H-spiro[naphthalene-1,22′-[20]oxa[13]thia[1,14]diazatetracyclo [14.7.2.0~3,6~.0~19,24~]pentacosa[8,16,18,24]tetraen]-15′-one 13′,13′-dioxide], the figures for the IC50 in assay [1] (setting [6]) and in assay [2] (setting [8]) were 2.75 nM and 246 nM, respectively.
With `C[C@@H]1[C@@H](C)CCC[C@](C)(CO)[C@@H]2CC[C@H]2CN2C[C@@]3(CCCc4cc(Cl)ccc43)COc3ccc(cc32)C(=O)NS1(=O)=O` [Example 100301, (1S,3′R,6′R,7′S,11′S,12′R)-6-chloro-7′-(hydroxymethyl)-7′,11′,12′-trimethyl-3,4-dihydro-2H,15′H-spiro[naphthalene-1,22′-[20]oxa[13]thia[1,14]diazatetracyclo [14.7.2.0~3,6~.0~19,24~]pentacosa[16,18,24]trien]-15′-one 13′,13′-dioxide], the IC50 turned out to be 1.31 nM in assay [1] (setting [6]) and 1930 nM in assay [2] (setting [8]).
Consider `CO[C@@]1(CN2CCc3ncncc3C2)/C=C/C[C@H](C)[C@@H](C)S(=O)(=O)NC(=O)c2ccc3c(c2)N(C[C@@H]2CC[C@H]21)C[C@@]1(CCCc2cc(Cl)ccc21)CO3` [Example 223, (1S,3′R,6′R,7′S,8′E,11′S,12′R)-6-chloro-7′-(7,8-dihydropyrido[4,3-d]pyrimidin-6(5H)-ylmethyl)-7′-methoxy-11′,12′-dimethyl-3,4-dihydro-2H,15′H-spiro[naphthalene-1,22′-[20]oxa[13]thia[1,14]diazatetracyclo [14.7.2.0~3,6~.0~19,24~]pentacosa[8,16,18,24]tetraen]-15′-one 13′,13′-dioxide], for which the figures for the IC50 in assay [1] (setting [3]) and in assay [2] (setting [4]) were 0.251 nM and 258 nM, respectively.
Take `C[C@@H]1[C@@H](C)C/C=C/[C@@](O)(CC#N)[C@@H]2CC[C@H]2CN2C[C@@]3(CCCc4cc(Cl)ccc43)COc3ccc(cc32)C(=O)NS1(=O)=O` [Example 100050, ((1S,3′R,6′R,7′S,8′E,11′S,12′R)-6-chloro-7′-hydroxy-11′,12′-dimethyl-13′,13′-dioxido-15′-oxo-3,4-dihydro-2H-spiro[naphthalene-1,22′-[20]oxa[13]thia[1,14]diazatetracyclo [14.7.2.0~3,6~.0~19,24~]pentacosa[8,16,18,24]tetraen]-7′-yl)acetonitrile]: the figures for the IC50 in assay [1] and in assay [2] (setting [7]) were 1.28 nM and 3820 nM, respectively.
Regarding `CO[C@]1(C#CCCO)/C=C/C[C@H](C)[C@@H](C)S(=O)(=O)NC(=O)c2ccc3c(c2)N(C[C@@H]2CC[C@H]21)C[C@@]1(CCCc2cc(Cl)ccc21)CO3` [Example 100426, (1S,3′R,6′R,7′R,8′E,11′S,12′R)-6-chloro-7′-(4-hydroxy-1-butyn-1-yl)-7′-methoxy-11′,12′-dimethyl-3,4-dihydro-2H,15′H-spiro[naphthalene-1,22′-[20]oxa[13]thia[1,14]diazatetracyclo [14.7.2.0~3,6~.0~19,24~]pentacosa[8,16,18,24]tetraen]-15′-one 13′,13′-dioxide], the IC50 in assay [1] (setting [6]) was 0.197 nM; in assay [2] (setting [8]), 110 nM.
As to `CCOC(=O)C(F)(F)[C@@]1(O)/C=C/C[C@H](C)[C@@H](C)S(=O)(=O)NC(=O)c2ccc3c(c2)N(C[C@@H]2CC[C@H]21)C[C@@]1(CCCc2cc(Cl)ccc21)CO3` [Example 100414, ethyl ((1S,3′R,6′R,7′R,8′E,11′S,12′R)-6-chloro-7′-hydroxy-11′,12′-dimethyl-13′,13′-dioxido-15′-oxo-3,4-dihydro-2H-spiro[naphthalene-1,22′-[20]oxa[13]thia[1,14]diazatetracyclo [14.7.2.0~3,6~.0~19,24~]pentacosa[8,16,18,24]tetraen]-7′-yl)(difluoro)acetate], the IC50 in assay [1] (setting [6]) stood at 0.626 nM; in assay [2] (setting [8]), 1270 nM.
`CO[C@]1(CN2CCN3CCC(F)(F)C[C@H]3C2)/C=C/C[C@H](C)[C@@H](C)S(=O)(=O)NC(=O)c2ccc3c(c2)N(C[C@@H]2CC[C@H]21)C[C@@]1(CCCc2cc(Cl)ccc21)CO3` (single isomer, unassigned) [Example 299]: the IC50 came out at 0.367 nM in assay [1] (setting [3]) and 456 nM in assay [2] (setting [5]).
